Data taken from the CATMoS acute toxicity set (Mansouri et al. 2021).

Assay: GHS categories as the set defines them, by LD50: 1 up to 5, 2 up to 50, 3 up to 300, 4 up to 2000, 5 above 2000 mg/kg
Conditions: rat; in vivo; po

SMILES	GHS category
CN1C(=O)C(O)N=C(c2ccccc2Cl)c2cc(Cl)ccc21 (stereo not drawn)	5
CCOc1ccc(OC)cc1-c1nc(=O)c2cc(C(=O)O)ccc2[nH]1	4
CC(O)CSCCCCCCCCC(C)(C)C (stereo not drawn)	5
O=C(O)[C@H](CO)Nc1ccc([N+](=O)[O-])cc1	5
CCOC(=O)c1c(CSc2ccccc2)n(C)c2cc(Br)c(O)c(CN(C)C)c12	5
c1ccc(Nc2ccc(NC3CCCCC3)cc2)cc1	5
CC(O)CCl (stereo not drawn)	3
CC(CCO)CC(C)(C)C (stereo not drawn)	5
O=C(O)C(=O)Nc1cccc(-c2nnn[nH]2)c1	5
O=C(O)c1ccccc1N1C(=O)C(Cl)C1c1ccccc1 (stereo not drawn)	4
CN1C[C@H](c2ccnn2C)CC2c3cccc4[nH]cc(c34)C[C@H]21 (stereo partly drawn)	4
O=C(O)c1ccccc1N=Cc1ccccc1	4
CC(C)c1cc(C(C)C)c(N=C=O)c(C(C)C)c1N=C=O	5
CCOP(OCC)c1ccccc1	5
CON=C(C(=O)OC)c1ccccc1CON=C(C)c1cccc(C(F)(F)F)c1	5
NC[C@H]1O[C@H](O[C@H]2[C@H](O)[C@@H](O[C@H]3O[C@H](CO)[C@@H](O)[C@H](N)[C@H]3O)[C@H](N)C[C@@H]2N)[C@H](N)[C@@H](O)[C@@H]1O	5
OCCCCSc1ccc(Cl)cc1	4
NC(=O)Oc1ccccc1C(=O)Oc1ccc([N+](=O)[O-])cc1	5
CCC(C)(CC)c1ccc(NC(=O)c2c(OC)cccc2OC)nn1	4
COc1ccc(-c2nc(C)c(C(N)=O)s2)cc1	5
CCN1C(=CC=CC=Cc2sc3ccccc3[n+]2CC)Sc2ccccc21	3
c1ccc2oc(C3(Cn4ccnc4)OCCCO3)cc2c1	4
O=C1NC(=O)c2ccccc21	5
CCOC(=O)N(C)C1CCCN(c2nc(N)c3cc(OC)c(OC)cc3n2)C1 (stereo not drawn)	4

SMILES	GHS category
CC(=O)O[C@@H]1[C@H](OC(C)=O)[C@@H](C)O[C@H]1n1cc(F)c(N)nc1=O	5
CCCCCCCCCCCCCC[Si](C)(O[Si](C)(C)C)O[Si](C)(C)C	5
CCOC(=O)C(=O)Nc1cc(SCCOC)ncn1	4
COc1ccccc1-c1nc(C)c(C(N)=O)s1	5
COC(=O)c1ccc(C(=O)OC)c(N)c1	5
CCN1CCN(C(=O)N[C@@H](C(=O)N[C@@H]2C(=O)N3[C@@H]2SC(C)(C)[C@H]3C(=O)O)c2ccccc2)C(=O)C1=O	5
O=C(O)c1ccccc1Nc1ccc(O)c(C(F)(F)F)c1	5
CC(=O)OCCCCCCCCCOC(C)=O	5
CCCCCC=CCC=CCC=CCC=CCCCC(=O)OCC	5
OC1(c2ccccc2)c2c(Cl)cccc2C2=NCCN21 (stereo not drawn)	4
Cc1c(C2=C(O)CC(C)(C)CC2=O)c2c(n1-c1ccccc1)CC(C)(C)CC2=O	5
CNc1ccc(C(=O)c2ccc(Cl)cc2)cc1O	5
Brc1ccc(CNC2=NCCS2)cc1	3
O=C(NC(=O)c1c(F)cccc1F)Nc1cc(Cl)c(OC(F)(F)C(F)F)c(Cl)c1	5
CCCCCCCCC(O)CCO (stereo not drawn)	5
CCCC(=O)c1ccc2c(c1)oc(=O)n2C	5
CCCc1nc2ccnn2c(N2CCOCC2)c1Cc1ccc(-c2ccccc2-c2nn[nH]n2)cc1	4
C=C(C)C1CCC(C)=C1CC(C)(C)COC(=O)CC (stereo not drawn)	5
C=CCN1C(=O)CCc2c(OCC(O)CN3CCC(Cc4ccccc4)CC3)cccc21 (stereo not drawn)	4
COc1nc(OC)nc(C(=O)c2cccc(F)c2N(C)S(=O)(=O)C(F)(F)F)n1	5
CNCc1ccc(CSCCN/C(=N/S(C)(=O)=O)NCC(O)c2ccc(O)cc2)o1 (stereo not drawn)	5
CC[C@H]1C[C@H]2[C@@H]3CCC4=CC(=O)CC[C@@H]4[C@H]3CC[C@]2(C)[C@H]1OC(C)=O	5
CCCc1c(Cc2ccc(-c3ccccc3-c3nn[nH]n3)cc2)c(N(CC)CC)nc2ncnn12	4
CC12CCC3c4ccc(OC(=O)c5ccccc5)cc4CCC3C1CCC2OC(=O)CO (stereo not drawn)	5

SMILES	GHS category
CC(CO)CCCC1CCCCC1 (stereo not drawn)	5
Nc1c(Oc2ccccc2)cc(O)c2c1C(=O)c1ccccc1C2=O	5
CCOC(=O)[C@H](CCc1ccccc1)N[C@@H](C)C(=O)N1CC2(C[C@H]1C(=O)O)SCCS2	5
CCCCCC1COCCC1OC(C)=O (stereo not drawn)	5
NS(=O)(=O)C(F)(F)C(F)(F)C(F)(F)C(F)(F)C(F)(F)C(F)(F)C(F)(F)C(F)(F)F	3
CCCCCCCCCCCCCCCCOC(=O)OOC(=O)OCCCCCCCCCCCCCCCC	5
CC(=O)OCC(=O)C1(O)C(O)CC2C3CCC4=CC(=O)C=CC4(C)C3=CCC21C (stereo not drawn)	5
CC(C)c1cc(C(C)C)c([N+](=O)[O-])c(C(C)C)c1[N+](=O)[O-]	5
O=C1NC(=O)C(c2ccccc2)(c2ccccc2O)N1 (stereo not drawn)	5
O=S(=O)(O)c1ccc(Nc2nc(Cl)nc(Cl)n2)cc1	5
CC(=O)Nc1ccc(NC(=O)c2cc3ccccc3cc2O)cc1	5
CC(=O)Nc1ncc([N+](=O)[O-])s1	4
C#C[C@]1(O)CC[C@H]2[C@@H]3CCC4=CC(=O)CC[C@]4(C)[C@H]3CC[C@@]21C	5
COc1nn(C(=O)NS(=O)(=O)c2ccccc2OC(F)(F)F)c(=O)n1C	5
CCCCOC(=O)C(C)C	5
CCCc1nc2ccnn2c(NCCN2CCCC2)c1Cc1ccc(-c2ccccc2-c2nn[nH]n2)cc1	4
CCCCCBr	5
CCCCCCOC(=O)CC(C)C	5
CC1=C(C/C=C(\C)CCC[C@H](C)CCC[C@H](C)CCCC(C)C)C(=O)c2ccccc2C1=O	5
CC(O)(CC(=O)O)c1ccc(C2CCCCC2)c(Cl)c1 (stereo not drawn)	4
CC(CO)(CO)C(=O)O	5
O=C(O)CCC(CC(=O)O)(C(=O)O)P(=O)(O)O (stereo not drawn)	5
C=C(C)C(=O)OCCOC(=O)CC(C)=O	5
CCOc1nc(F)cc2nc(S(=O)(=O)Nc3c(Cl)cccc3C(=O)OC)nn12	5

SMILES	GHS category
CC(C)=CCSC[C@H](N)C(=O)O	5
NC(=O)Oc1ccc(Cl)cc1C(=O)Oc1ccccc1	5
O=C1CC(=O)NC(=O)N1	5
CCOC(=O)c1cnn(-c2cccc(C)c2)c1C#N	4
CCCCC(CC)COC(=O)c1ccccc1O (stereo not drawn)	5
COC(=O)c1ccccc1S(=O)(=O)NC(=O)Nc1nc(C)cc(C)n1	5
CC12CCC(O)C=C1C(O)CC1(O)C2CCC2(C)C(c3ccc(=O)oc3)CCC21O (stereo not drawn)	2
CCCCCCC1(C)CCC(=O)O1 (stereo not drawn)	5
O=C1CCCCCCCCCCOCCCCO1	5
c1ccc2oc(C3(Cn4ccnc4)OCCO3)cc2c1	4
N#CCC(=O)c1ccccc1Cl	5
C[C@@H](O)[C@H]1C(=O)N2C(C(=O)O)=C(SCCNC=N)C[C@H]12	5
C[C@H]1c2cccc(O)c2C(=O)C2=C(O)[C@]3(O)C(=O)C(C(N)=O)=C(O)[C@@H](N(C)C)[C@@H]3[C@@H](O)[C@@H]21	5
CN(C)[C@@H]1C(O)=C(C(N)=O)C(=O)[C@@]2(O)C(O)=C3C(=O)c4c(O)ccc(Cl)c4[C@@H](O)[C@H]3C[C@@H]12	5
CCC(c1ccc(O)cc1)C(C#N)c1ccc(O)cc1 (stereo not drawn)	5
CC(C)=NO	5
COC[C@H]1CO[C@@](Cn2cncn2)(c2cc3ccccc3o2)O1	4
O=c1nc2nc[nH]n2c(COCc2ccccc2)c1Cc1ccc(-c2ccccc2-c2nn[nH]n2)cc1	4
Cc1nn(C)c(O)c1C(=O)c1ccc(C(F)(F)F)cc1S(C)(=O)=O	5
CCCc1c(Cc2ccc(-c3oc(Br)cc3-c3nn[nH]n3)cc2)c(=O)nc2nc[nH]n12	4
CC(=O)CC(=O)OCCOC(=O)CC(C)=O	5
CCCCCCCC1CCCC1=O (stereo not drawn)	5
COC(=O)NC(=S)Nc1ccc(OCc2ccccc2)cc1[N+](=O)[O-]	5
CCCCCOC1OC(C)C(O)C(O)C1O (stereo not drawn)	5

SMILES	GHS category
CCOC(=O)c1nn(-c2ccc(OC)cc2)c2c1CCN(c1ccc([N+](=O)[O-])cc1)C2=O	5
CN(C)C1=NC(=O)C(c2ccccc2)O1 (stereo not drawn)	5
O=S(=O)(O)c1ccc(N2N=C(c3ccc(Cl)cc3)CC2c2ccccc2)cc1 (stereo not drawn)	5
COc1ccc2c(c1)CCN(c1ccccc1)C2c1ccc(OCCN2CCCC2)cc1 (stereo not drawn)	4
CC(C)=CCC(C#N)(CCN(C)C)Cc1cccc2ccccc12 (stereo not drawn)	4
FC(F)(Cl)C(F)(Cl)C(F)(Cl)C(F)(F)Cl (stereo not drawn)	5
CCCCCCCCCC(C)C(OC)OC (stereo not drawn)	5
CC(C)(CO)C(O)C(=O)NCCC(=O)NCCSSCCNC(=O)CCNC(=O)C(O)C(C)(C)CO (stereo not drawn)	5
O=[N+]([O-])c1ccc2c(c1)COP(=S)(N1CCCC1)O2 (stereo not drawn)	3
CCCCCCCCCCCCCCCCCCOC(=O)CCSCCC(=O)OCCCCCCCCCCCCCCCCCC	5
CC(C)=CCOc1ccc(/C=C/C(=O)c2ccc(OCC=C(C)C)cc2OCC(=O)O)cc1	5
CC(=O)Nc1ccc(C(C[N+](=O)[O-])Sc2ccc(C)cc2)cc1 (stereo not drawn)	5
O=S(=O)(c1ccc(Cl)cc1)c1ccc(Cl)cc1	5
CCOC(=O)c1ccnc(C(=O)OCC)c1	5
CCCCCCCCO	5
CCOCOC1CCCCCCCCCCC1	5
COC(=O)Nc1nc2ccc(OCc3ccccc3)cc2[nH]1	5
CCCc1c(Cc2ccc(-c3ccccc3-c3nn[nH]n3)cc2)c(=O)nc2nc(C)[nH]n12	4
COc1cc(OC)nc(N=C(O)NS(=O)(=O)c2c(Cl)nc3ccccn23)n1	5
CCC(C)Cl (stereo not drawn)	5
CCCCCCC(=O)OC	5
O=C1COc2cc(C(=O)c3ccc(Cl)cc3)ccc2N1	5
